Measured values published in the supplement of paper PMC10307832.

Tests used:
Assay in all cases: relative viability (nuclei count vs DMSO), 5 days (fraction); higher = more cells survive
[1] = compound: C1=CC2=NC=CN=C2C=C1/C=C/3\C(=O)NC(=O)S3 + CS(=O)(=O)CCNCc1ccc(-c2ccc3ncnc(Nc4ccc(OCc5cccc(F)c5)c(Cl)c4)c3c2)o1 [Lapatinib] (partner 2 µM)
In short: (§1)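 Nuclei were stained with Hoechst during a one-step fixation (final 0.05% Triton X-100, 1% formaldehyde, 1 ug/ml Hoechst) carried out 5 days after dosing, then counted on 4× images. The cells, lung cancer lines in 1536-well plates, had been dosed by pin tool the day after seeding with one drug alone or a fixed anchor-drug dose plus five library-drug doses (not always all listed) in √10 steps. Relative viability is the nuclei count in treated wells divided by that in vehicle wells, and each value is the median of duplicate plates.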

[2] = compound: C1=CC2=NC=CN=C2C=C1/C=C/3\C(=O)NC(=O)S3 + C[C@]1(O)C[C@@H](c2nc(-c3ccc4ccc(-c5ccccc5)nc4c3)c3c(N)nccn32)C1 [Linsitinib] (partner 1 µM)
In short: as §1

[3] = compound: CCN1CCN(c2ccc(Nc3cc(N(C)C(=O)Nc4c(Cl)c(OC)cc(OC)c4Cl)ncn3)cc2)CC1 [BGJ398] + CC(=O)Nc1cccc(-n2c(=O)n(C3CC3)c(=O)c3c(Nc4ccc(I)cc4F)n(C)c(=O)c(C)c32)c1 [Trametinib] (partner 0.02 µM)
In short: as §1

[4] = compound: CCN1CCN(c2ccc(Nc3cc(N(C)C(=O)Nc4c(Cl)c(OC)cc(OC)c4Cl)ncn3)cc2)CC1 [BGJ398] + O=C(CCCCCCC(=O)Nc1ccccc1)NO [Vorinostat] (partner 1 µM)
In short: as §1

**Q.** Which relative viability ([1]; first compound 0.02 µM) does the source give for UMC-11 here?
**A.** Its relative viability is 1.02.

**Q.** And the relative viability ([1]; first compound 0.06325 µM)?
**A.** Its relative viability is 1.15.

**Q.** And the relative viability ([1]; first compound 0.2 µM)?
**A.** Its relative viability is 1.19.

**Q.** And the relative viability ([1]; first compound 0.6325 µM)?
**A.** Its relative viability is 1.02.

**Q.** And the relative viability ([1]; first compound 2 µM)?
**A.** Its relative viability is 1.37.

**Q.** What about the relative viability ([2]; first compound 0.02 µM) of the same cell line?
**A.** Its relative viability is 1.02.

**Q.** And the relative viability ([2]; first compound 0.06325 µM)?
**A.** The relative viability was 1.12.

**Q.** What about the relative viability ([2]; first compound 0.2 µM) of the same cell line?
**A.** The relative viability was 1.05.

**Q.** And the relative viability ([2]; first compound 0.6325 µM)?
**A.** Its relative viability is 0.989.

**Q.** What about the relative viability ([2]; first compound 2 µM) of the same cell line?
**A.** Its relative viability is 1.11.

**Q.** What about the relative viability ([3]; first compound 0.01 µM) of the same cell line?
**A.** Its relative viability is 0.671.

**Q.** What about the relative viability ([3]; first compound 0.03162 µM) of the same cell line?
**A.** The relative viability was 0.749.

**Q.** What about the relative viability ([3]; first compound 0.1 µM) of the same cell line?
**A.** The relative viability was 0.808.

**Q.** And the relative viability ([3]; first compound 0.3162 µM)?
**A.** Its relative viability is 0.622.

**Q.** What about the relative viability ([3]; first compound 1 µM) of the same cell line?
**A.** The relative viability was 0.55.

**Q.** And the relative viability ([4]; first compound 0.01 µM)?
**A.** Its relative viability is 0.363.

**Q.** What about the relative viability ([4]; first compound 0.03162 µM) of the same cell line?
**A.** Its relative viability is 0.407.

**Q.** What about the relative viability ([4]; first compound 0.1 µM) of the same cell line?
**A.** Its relative viability is 0.376.

**Q.** What about the relative viability ([4]; first compound 0.3162 µM) of the same cell line?
**A.** Its relative viability is 0.376.

**Q.** What about the relative viability ([4]; first compound 1 µM) of the same cell line?
**A.** The relative viability was 0.382.
